# Source: publication PMC10762035, “Molecular basis of human trace amine-associated receptor 1 activation” (Nature Communications, 2024)
# Where a chain is given by its changes, count along the chain named. Where “and” joins values, the source holds several entries; their conditions need not be identical. Equal entries are not always repeated. Where two headings read alike, the source gives them in different places.
# Columns and labels:
# Assay type in all cases: cell-based
# [1] = target: T1, hTA1 V184P (Homo sapiens, UniProt Q96RJ0, V184P); assay: GloSensor cAMP accumulation assay, V184P mutant; conditions: for cAMP accumulation response, single replicate values (source data, Supplementary Figure 5): hTA1 V184P (N=2), log[Compound]
# T1 construct: expressed in transfected cells; host or cells: HEK293T
# T1 sequence (Q96RJ0 1-339 V184P): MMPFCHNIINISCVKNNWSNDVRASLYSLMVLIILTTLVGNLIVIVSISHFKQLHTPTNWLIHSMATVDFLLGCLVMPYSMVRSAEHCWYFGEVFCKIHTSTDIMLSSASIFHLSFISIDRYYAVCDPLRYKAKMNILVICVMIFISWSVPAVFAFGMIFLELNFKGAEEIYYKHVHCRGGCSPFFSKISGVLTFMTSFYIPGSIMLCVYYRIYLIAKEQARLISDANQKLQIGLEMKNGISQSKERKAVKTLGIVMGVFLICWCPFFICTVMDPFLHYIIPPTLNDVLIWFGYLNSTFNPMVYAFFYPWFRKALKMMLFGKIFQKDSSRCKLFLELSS
# [2] = target: T2, hTA1 W264F (Homo sapiens, UniProt Q96RJ0, W264F); assay: GloSensor cAMP accumulation assay, W264F mutant;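 further: cells transiently transfected with receptor plus GloSensor, luminescence read 30 min after agonist addition at room temperature, concentration-response curves fitted by log(agonist) vs response regression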
# T2 construct: expressed in transfected cells; host or cells: HEK293T
# T2 sequence (Q96RJ0 1-339 W264F): T1 sequence (Q96RJ0 1-339 V184P) with P184V, W264F
# [3] = target: T3, hTA1 C178S (Homo sapiens, UniProt Q96RJ0, C178S); assay: GloSensor cAMP accumulation assay, C178S mutant; conditions: for C178S - Normalized Luminescence Counts (N=2): log[Compound], single replicates
# T3 construct: expressed in transfected cells; host or cells: HEK293T
# T3 sequence (Q96RJ0 1-339 C178S): T1 sequence (Q96RJ0 1-339 V184P) with C178S, P184V
# [4] = target: T4, hTA1 C88S (Homo sapiens, UniProt Q96RJ0, C88S); assay: GloSensor cAMP accumulation assay, C88S mutant; conditions: C88S
# T4 construct: expressed in transfected cells; host or cells: HEK293T
# T4 sequence (Q96RJ0 1-339 C88S): T1 sequence (Q96RJ0 1-339 V184P) with C88S, P184V
# [5] = target: T5, β2AR-Nterm-hTA1-F112^3.41W (CryoEM Construct) (Homo sapiens, UniProt Q96RJ0, F112W); assay: GloSensor cAMP accumulation assay, cryoEM construct;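 further: cells transiently co-transfected with the receptor construct and GloSensor cAMP biosensor, luminescence read after 30 min compound exposure at room temperature in the dark as cAMP accumulation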;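 on Normalized Luminescence Counts (N=2): normalized to the maximum response of β-PEA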
# T5 construct: FLAG (N); 10xHis (N); TEV protease site (N); expressed in transfected cells; host or cells: HEK293T
# [6] = W246F mutant (so in the source) minus WT average
# [7] = Cryo EM Construct minus WT average
# T5 sequence (Q96RJ0 with tags, fused parts or gaps F112W): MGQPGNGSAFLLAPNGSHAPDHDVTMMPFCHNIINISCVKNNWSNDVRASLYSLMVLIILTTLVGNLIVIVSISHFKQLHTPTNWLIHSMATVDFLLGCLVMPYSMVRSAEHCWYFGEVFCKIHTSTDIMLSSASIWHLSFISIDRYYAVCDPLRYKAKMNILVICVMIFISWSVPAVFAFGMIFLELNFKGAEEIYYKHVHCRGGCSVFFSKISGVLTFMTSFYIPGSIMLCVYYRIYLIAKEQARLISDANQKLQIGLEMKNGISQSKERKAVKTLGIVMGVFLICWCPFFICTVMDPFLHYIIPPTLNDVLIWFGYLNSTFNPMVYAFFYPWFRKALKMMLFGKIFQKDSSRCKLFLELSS
smiles,measurement,setting,value
"NCCc1ccc(O)cc1 [TYR, tyramine]",reduction in potency vs wild type,[1]; V184P,4 fold
same,EC50,"[1]; V184P, n=2, read-out: EC50",1490 nM
same,Emax,"[1]; V184P, n=2, read-out: Span ± SEM (Emax normalized to β-PEA)",105 ± 5.68%
same,"cAMP accumulation response, single replicate values (source data, Supplementary Figure 5)",[1]; M = -5,66.7204 and 110.557 and 88.2354 and 80.832 and 102.751 and 95.962
same,"cAMP accumulation response, single replicate values (source data, Supplementary Figure 5)",[1]; M = -5.522,68.2965 and 82.5176 and 84.3869 and 52.6087 and 59.3978 and 71.1332
same,"cAMP accumulation response, single replicate values (source data, Supplementary Figure 5)",[1]; M = -6,47.9177 and 50.0802 and 42.1633 and 41.1642 and 31.9504 and 31.2715
same,"cAMP accumulation response, single replicate values (source data, Supplementary Figure 5)",[1]; M = -6.522,19.512 and 25.4864 and 24.1669 and 21.0878 and 21.7667 and 21.1848
same,"cAMP accumulation response, single replicate values (source data, Supplementary Figure 5)",[1]; M = -7,8.113 and 10.3856 and 10.972 and 5.085 and 4.018 and 3.436
same,"cAMP accumulation response, single replicate values (source data, Supplementary Figure 5)",[1]; M = -7.522,1.736 and 1.149 and 1.113 and 1.69 (2×) and 1.5934
same,"cAMP accumulation response, single replicate values (source data, Supplementary Figure 5)",[1]; M = -8,1.479 and 2.432 and 2.102 and -0.4433 and -0.3463 and 0.1386
same,"cAMP accumulation response, single replicate values (source data, Supplementary Figure 5)",[1]; M = -8.522,0.0496 and 0.8926 and 2.065 and -0.3463 and 0.4296 and -0.05538
same,"cAMP accumulation response, single replicate values (source data, Supplementary Figure 5)",[1]; M = -9,-0.2803 and 1.809 and 0.9293 and -0.4433 and -0.2494 (2×)
same,"cAMP accumulation response, single replicate values (source data, Supplementary Figure 5)",[1]; M = -9.522,-0.3536 and -0.06036 and -0.6835 and -0.05538 (2×) and 0.04161
same,"cAMP accumulation response, single replicate values (source data, Supplementary Figure 5)",[1]; M = -10,0.4894 and -0.09701 and -0.5368 and 0.04161 and -0.3463 and -0.05538
same,"cAMP accumulation response, single replicate values (source data, Supplementary Figure 5)",[1]; M = -10.522,-0.4269 and 0.4528 and -0.94 and 0.04161 and 0.5265 and -0.05538
same,"cAMP accumulation response, single replicate values (source data, Supplementary Figure 5)",[1]; M = -11,0.1229 and 0.4528 and 0.0496 and -0.2494 and -0.4433 and 0.1386
same,"cAMP accumulation response, single replicate values (source data, Supplementary Figure 5)",[1]; M = -11.522,-0.2436 and 1.039 and -0.2803 and 0.04161 and 0.5265 and 0.3326
same,"cAMP accumulation response, single replicate values (source data, Supplementary Figure 5)",[1]; M = -12,-0.1337 and -0.5368 and -0.7568 and 0.1386 and 0.5265 (2×)
same,"cAMP accumulation response, single replicate values (source data, Supplementary Figure 5)",[1]; M = -12.522,1.113 and 0.5994 and -0.5368 and 1.399 and 1.302 and 1.69
same,EC50,"[1]; hTA1 V184P mutant, Figure 3B source data, each grid row a separate experiment, 3 replicates, read-out: pEC50 values (Mean) (converted)",2180 nM and 1020 nM
same,"Emax values, Mean","[1]; hTA1 V184P mutant, β-PEA set to 100, each grid row a separate experiment, 3 replicates",99.5188
same,Emax,"[1]; hTA1 V184P mutant, β-PEA set to 100, each grid row a separate experiment, 3 replicates, read-out: Emax values (Mean)",111%
same,ΔEmax values (each mutant value - WT average),[2]; [6],2.816
same,ΔpEC50 values (each mutant value - WT average),[2]; [6],-1.54 and -1.2519
same,EC50,"[2]; W246F mutant (so in the source), each line an independent experiment, 3 replicates, read-out: pEC50 values (Mean) (converted)",14400 nM and 7410 nM
same,"Emax values, Mean","[2]; W246F mutant (so in the source), β-PEA = 100, each line an independent experiment, 3 replicates",99.2183
same,Emax,"[2]; W246F mutant (so in the source), β-PEA = 100, each line an independent experiment, 3 replicates, read-out: Emax values (Mean)",102%
same,EC50,"[2]; W264F, n=2, read-out: EC50",10300 nM
same,Emax,"[2]; W264F, n=2, read-out: Span ± SEM (Emax normalized to β-PEA)",101 ± 1.29%
same,"ΔpEC50 values (each mutant value - WT average), Mean","[3]; C178S, each row one experiment (N=2), 3 replicates",0.02169 and 0.1822
same,EC50,"[3]; C178S, each row one experiment (N=2), 3 replicates, read-out: pEC50 values, Mean (converted)",395 nM and 273 nM
same,EC50,"[3]; C178S, n=2, read-out: EC50",328 nM
same,Emax,"[3]; C178S, n=2, read-out: Span ± SEM (Emax normalized to β-PEA)",98.4 ± 1.77%
same,"Emax values, Mean","[3]; C178S, β-PEA = 100, each row one experiment (N=2), 3 replicates",100.127
same,Emax,"[3]; C178S, β-PEA = 100, each row one experiment (N=2), 3 replicates, read-out: Emax values, Mean",96.6%
same,C178S - Normalized Luminescence Counts (N=2),[3]; M = -5,91.979 and 95.8576 and 102.026 and 75.3904 and 102.974 and 107.581
same,C178S - Normalized Luminescence Counts (N=2),[3]; M = -5.522,87.8668 and 77.3994 and 76.8387 and 82.4508 and 101.179 and 88.1949
same,C178S - Normalized Luminescence Counts (N=2),[3]; M = -6,67.8199 and 64.4086 and 66.1843 and 84.2459 and 87.7162 and 94.2082
same,C178S - Normalized Luminescence Counts (N=2),[3]; M = -6.522,42.5859 and 50.2963 and 40.4364 and 48.0464 and 47.119 and 50.6791
same,C178S - Normalized Luminescence Counts (N=2),[3]; M = -7,17.0716 and 19.2212 and 22.0717 and 25.7583 and 28.0918 and 27.3439
same,C178S - Normalized Luminescence Counts (N=2),[3]; M = -7.522,4.922 and 5.576 and 4.735 and 10.3511 and 8.496 and 10.8597
same,C178S - Normalized Luminescence Counts (N=2),[3]; M = -8,0.8565 and 3.099 and 2.0247 and 3.141 and 5.295 and 4.428
same,C178S - Normalized Luminescence Counts (N=2),[3]; M = -8.522,-0.4052 and -0.03139 and 0.3892 and 0.9572 and 2.034 and 4.517
same,C178S - Normalized Luminescence Counts (N=2),[3]; M = -9,-1.013 and -1.2 and 0.1555 and -0.5985 and 0.02978 and 0.3589
same,C178S - Normalized Luminescence Counts (N=2),[3]; M = -9.522,-0.5454 and -1.1529 and -1.2 and -0.9575 and 1.615 and 1.376
same,C178S - Normalized Luminescence Counts (N=2),[3]; M = -10,-0.4052 and -0.07812 and -0.966 and 0.5982 and 1.645 and 1.346
same,C178S - Normalized Luminescence Counts (N=2),[3]; M = -10.522,-0.7791 and -0.3118 and -0.5921 and -2.214 and -0.2395 and -1.047
same,C178S - Normalized Luminescence Counts (N=2),[3]; M = -11,-0.8258 and -0.3585 and -1.106 and 0.08961 and 2.782 and 2.932
same,C178S - Normalized Luminescence Counts (N=2),[3]; M = -11.522,-0.1716 and 0.1555 and 0.1088 and 1.047 and 3.051 and 2.303
same,C178S - Normalized Luminescence Counts (N=2),[3]; M = -12,-0.9193 and -0.3118 and -0.6389 and 0.6281 and 2.423 and 2.214
same,C178S - Normalized Luminescence Counts (N=2),[3]; M = -12.522,0.2023 and -0.07812 and -0.03139 and -1.077 and 1.944 and 2.603
same,Emax values,[4]; Mean of fit per experiment,100.851
same,Emax,"[4]; Mean of fit per experiment, read-out: Emax values",118%
same,EC50,"[4]; Mean of fit per experiment, read-out: pEC50 values (converted)",442 nM and 317 nM
same,EC50,"[4]; n=2, read-out: EC50",375 nM
same,Emax,"[4]; n=2, read-out: Span ± SEM (Emax normalized to β-PEA)",109 ± 8.4%
same,"ΔEmax values (each mutant value - WT average), Mean",[5]; [7],14.87 and 14.1384
same,"ΔpEC50 values (each mutant value - WT average), Mean",[5]; [7],0.1106 and 0.3686
same,"Emax values, Mean","[5]; Cryo EM Construct, mean of each independent experiment (3 replicates)",0.3686
same,EC50,"[5]; Cryo EM Construct, mean of each independent experiment (3 replicates), read-out: pEC50 values, Mean (converted)",322 nM and 178 nM
same,Normalized Luminescence Counts (N=2),"[5]; CryoEM Construct, log[Compound], M = -5, single replicates",108.729 and 109.99 and 112.27 and 114.944
same,EC50,"[5]; CryoEM Construct, n=2, read-out: EC50",235 nM
same,Emax,"[5]; CryoEM Construct, n=2, read-out: Span ± SEM (Emax normalized to β-PEA)",113 ± 2.5%
same,EC50,"[5]; CryoEM Construct, n=2, read-out: pEC50 ± SEM (converted)",240 nM
